Data published in patent US20180148418A1, “AMIDO-SUBSTITUTED CYCLOHEXANE DERIVATIVES” (Bayer Pharma Aktiengesellschaft, priority 2015, published 2018).

Legend:
TNKS2 = target: T1, TNKS2 (Homo sapiens, UniProt Q9H2K2); assay: TNKS2 Assay B (auto-parsylation, [3H]-NAD+ SPA); assay type: biochemical; settings: 6 nM TNKS2, auto-parsylation, over night at room temperature
T1 construct: purchased BPS Bioscience, San Diego, USA 80572 (TNKS2 Histone Ribosylation Assay Kit)
T1 sequence (Q9H2K2 1-1166): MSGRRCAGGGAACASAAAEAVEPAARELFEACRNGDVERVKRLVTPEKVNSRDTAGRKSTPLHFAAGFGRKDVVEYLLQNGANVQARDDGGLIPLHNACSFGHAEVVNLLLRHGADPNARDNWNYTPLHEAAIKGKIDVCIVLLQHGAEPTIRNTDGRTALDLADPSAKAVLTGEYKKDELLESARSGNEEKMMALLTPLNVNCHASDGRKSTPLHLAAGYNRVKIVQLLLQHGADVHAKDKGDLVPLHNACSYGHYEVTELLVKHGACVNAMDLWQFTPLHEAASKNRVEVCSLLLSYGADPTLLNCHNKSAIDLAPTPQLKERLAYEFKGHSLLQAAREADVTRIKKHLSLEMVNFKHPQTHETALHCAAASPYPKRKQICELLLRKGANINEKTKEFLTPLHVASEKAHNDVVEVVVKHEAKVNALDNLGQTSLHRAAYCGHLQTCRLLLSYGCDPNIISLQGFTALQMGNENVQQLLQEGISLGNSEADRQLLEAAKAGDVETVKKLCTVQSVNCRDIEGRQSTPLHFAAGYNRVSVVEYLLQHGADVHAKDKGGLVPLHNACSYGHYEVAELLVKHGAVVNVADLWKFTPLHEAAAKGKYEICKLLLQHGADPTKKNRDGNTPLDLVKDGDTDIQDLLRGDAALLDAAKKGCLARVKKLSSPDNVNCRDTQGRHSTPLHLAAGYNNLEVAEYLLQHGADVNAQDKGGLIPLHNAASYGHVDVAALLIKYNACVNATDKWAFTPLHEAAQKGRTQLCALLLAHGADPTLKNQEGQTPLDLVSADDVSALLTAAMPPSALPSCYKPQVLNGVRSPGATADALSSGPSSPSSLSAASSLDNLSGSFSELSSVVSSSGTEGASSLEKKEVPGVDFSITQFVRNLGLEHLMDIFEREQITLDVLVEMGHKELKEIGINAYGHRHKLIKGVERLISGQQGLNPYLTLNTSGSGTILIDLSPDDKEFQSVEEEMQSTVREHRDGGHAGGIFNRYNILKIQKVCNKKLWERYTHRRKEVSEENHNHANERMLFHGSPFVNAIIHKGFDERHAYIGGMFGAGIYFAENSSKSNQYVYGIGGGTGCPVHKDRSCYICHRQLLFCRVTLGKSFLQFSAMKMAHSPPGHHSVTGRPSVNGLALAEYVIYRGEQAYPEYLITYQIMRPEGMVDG

[1] = test system: HEK293 cells cotransfected with the FOP control vector; assay: HEK293 FOP assay (control reporter with non-functional TCF elements); assay type: cell-based; settings: Homo sapiens, 16 hours
Outline: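 Stable HEK293 line carrying FOP control reporter (randomized non-functional TCF sites, with pcDNA3), Geneticin-selected, plated 24 h before assay. Stimulated with recombinant human Wnt-3a (2500-5 ng/ml) and compounds 50 μM–15 nM (3.16-fold steps) in CAFTY buffer pH 7.4 with 2 mM Ca2+, 0.01% BSA, run parallel to TOP line.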

Compound | IC50 (TNKS2) | IC50 [1]
O=C(NC[C@H]1CCCO1)c1nc[nH]c1C(=O)N[C@H]1CC[C@H](C(=O)Nc2ccc(F)cc2Cl)CC1 [Example 80, N^5-{trans-4-[(2-chloro-4-fluorophenyl)carbamoyl]cyclohexyl}-N^4-[(2R)-tetrahydrofuran-2-ylmethyl]-1H-imidazole-4,5-dicarboxamide] | 0.05 µM | 23 µM
CC(C)NCCNC(=O)c1nc[nH]c1C(=O)N[C@H]1CC[C@H](C(=O)Nc2ccc(F)cc2Cl)CC1 [Example 77, N^5-{trans-4-[(2-chloro-4-fluorophenyl)carbamoyl]cyclohexyl}-N^4-[2-(isopropylamino)ethyl]-1H-imidazole-4,5-dicarboxamide] | 0.06 µM | ≥ 50 µM
Cc1c(C(C)O)cnc2c(C(=O)N[C@H]3CC[C@H](C(=O)Nc4ccc(F)cc4Cl)CC3)cnn12 (stereo partly drawn) [Example 58, N-{trans-4-[(2-chloro-4-fluorophenyl)carbamoyl]cyclohexyl}-6-(1-hydroxyethyl)-7-methylpyrazolo[1,5-a]pyrimidine-3-carboxamide] | 0.71 µM | ≥ 50 µM
O=C(NC[C@@H]1CCCO1)c1nc[nH]c1C(=O)N[C@H]1CC[C@H](C(=O)Nc2ccc(F)cc2Cl)CC1 [Example 79, N^5-{trans-4-[(2-chloro-4-fluorophenyl)carbamoyl]cyclohexyl}-N^4-[(2S)-tetrahydrofuran-2-ylmethyl]-1H-imidazole-4,5-dicarboxamide] | 0.1 µM | 43 µM
CNC(=O)c1[nH]cnc1C(=O)N[C@H]1CC[C@H](C(=O)Nc2ccc(F)cc2Cl)CC1(F)F (single isomer, unassigned) [Example 33, N^4-{(trans)-4-[(2-chloro-4-fluorophenyl)carbamoyl]-2,2-difluorocyclohexyl}-N^5-methyl-1H-imidazole-4,5-dicarboxamide] | 0.38 µM | ≥ 50 µM
CN1CCN(c2ccc3ncc(C(=O)N[C@H]4CC[C@H](C(=O)Nc5ccc(F)cc5Cl)CC4)n3n2)CC1 [Example 49, N-{trans-4-[(2-chloro-4-fluorophenyl)carbamoyl]cyclohexyl}-6-(4-methylpiperazin-1-yl)imidazo[1,2-b]pyridazine-3-carboxamide] | 0.13 µM | 32 µM
O=C(N[C@H]1CC[C@H](C(=O)Nc2ccc(F)cc2Cl)CC1)c1cnc2ccc(N3CCOCC3)nn12 [Example 48, N-{trans-4-[(2-chloro-4-fluorophenyl)carbamoyl]cyclohexyl}-6-(morpholin-4-yl)imidazo[1,2-b]pyridazine-3-carboxamide] | 0.31 µM | 14 µM
CNC(=O)c1[nH]cnc1C(=O)N[C@@H]1CC[C@@H](C(=O)Nc2ccc(F)cc2Cl)CC1(F)F (stereo in doubt) [Example 32, N^4-{(trans)-4-[(2-chloro-4-fluorophenyl)carbamoyl]-2,2-difluorocyclohexyl}-N^5-methyl-1H-imidazole-4,5-dicarboxamide] | 0.28 µM | ≥ 50 µM
COC[C@@H](C)NC(=O)c1nc[nH]c1C(=O)N[C@H]1CC[C@H](C(=O)Nc2c(F)cc(F)cc2Cl)CC1 [Example 67, N^5-{trans-4-[(2-chloro-4,6-difluorophenyl)carbamoyl]cyclohexyl}-N^4-[(2R)-1-methoxypropan-2-yl]-1H-imidazole-4,5-dicarboxamide] | 0.28 µM | ≥ 50 µM
CNC(=O)c1nc[nH]c1C(=O)N[C@H]1CC[C@H](C(=O)Nc2c(Br)cc(F)c(F)c2F)CC1 [Example 27, N^5-{trans-4-[(6-bromo-2,3,4-trifluorophenyl)carbamoyl]cyclohexyl}-N^4-methyl-1H-imidazole-4,5-dicarboxamide] | 0.019 µM | ≥ 50 µM
CN(C)c1ccc2ncc(C(=O)N[C@H]3CC[C@H](C(=O)Nc4ccc(F)cc4Cl)CC3)n2n1 [Example 52, N-{trans-4-[(2-chloro-4-fluorophenyl)carbamoyl]cyclohexyl}-6-(dimethylamino)imidazo[1,2-b]pyridazine-3-carboxamide] | 0.011 µM | 40 µM

Now from value to compound, other results behind:

IC50 (TNKS2) | Compound | IC50 [1]
4.4 µM | O=C(N[C@H]1CC[C@@]2(CCN(c3cccc(Cl)c3)C2=O)CC1)c1[nH]cnc1C(=O)N1CCOCC1 [Example 286, N-[(trans)-2-(3-chlorophenyl)-1-oxo-2-azaspiro[4.5]dec-8-yl]-4-(morpholin-4-ylcarbonyl)-1H-imidazole-5-carboxamide] | ≥ 50 µM
> 10 µM | O=C(NC1CCC(F)(C(=O)Nc2ccc(F)cc2Cl)CC1)c1cnn2cccnc12 (single isomer, unassigned) [Example 365, N-{4-[(2-chloro-4-fluorophenyl)carbamoyl]-4-fluorocyclohexyl}pyrazolo[1,5-a]pyrimidine-3-carboxamide (single isomer)] | 35 µM
1.7 µM | O=C(N[C@H]1CC[C@H](C(=O)Nc2ccc(F)cc2Cl)CC1)c1cnc2ccc(O)nn12 [Example 360, N-{trans-4-[(2-chloro-4-fluorophenyl)carbamoyl]cyclohexyl}-6-hydroxyimidazo[1,2-b]pyridazine-3-carboxamide] | ≥ 50 µM
0.0076 µM | Cc1cc(N2CC[C@]3(CC[C@@H](NC(=O)c4[nH]cnc4C(=O)NCC(F)(F)F)CC3)C2=O)c(Cl)cc1F [Example 297, N^5-[(trans)-2-(2-chloro-4-fluoro-5-methylphenyl)-1-oxo-2-azaspiro[4.5]dec-8-yl]-N^4-(2,2,2-trifluoroethyl)-1H-imidazole-4,5-dicarboxamide] | 9.3 µM
0.022 µM | O=C(NCC1CCCO1)c1nc[nH]c1C(=O)N[C@H]1CC[C@H](C(=O)Nc2cc(F)c(F)cc2Cl)CC1 (stereo partly drawn) [Example 86, N^5-{trans-4-[(2-chloro-4,5-difluorophenyl)carbamoyl]cyclohexyl}-N^4-(tetrahydrofuran-2-ylmethyl)-1H-imidazole-4,5-dicarboxamide] | 14 µM
0.0017 µM | Cc1cc(N2CC[C@]3(CC[C@@H](NC(=O)c4[nH]cnc4C(=O)NCCN4CCC(C)CC4)CC3)C2=O)c(Cl)cc1F [Example 290, N^5-[(trans)-2-(2-chloro-4-fluoro-5-methylphenyl)-1-oxo-2-azaspiro[4.5]dec-8-yl]-N^4-[2-(4-methylpiperidin-1-yl)ethyl]-1H-imidazole-4,5-dicarboxamide] | 16 µM
0.25 µM | COCC(C)NC(=O)c1nc[nH]c1C(=O)N[C@H]1CC[C@H](C(=O)Nc2ccc(F)cc2Cl)CC1 (stereo partly drawn) [Example 82, N^5-{trans-4-[(2-chloro-4-fluorophenyl)carbamoyl]cyclohexyl}-N^4-(1-methoxypropan-2-yl)-1H-imidazole-4,5-dicarboxamide] | ≥ 50 µM
1.6 µM | O=C(NCC1CCCO1)c1nc[nH]c1C(=O)N[C@H]1CC[C@H](C(=O)Nc2cc(N3CCOCC3)ccc2Cl)CC1 (stereo partly drawn) [Example 89, N^5-(trans-4-{[2-chloro-5-(morpholin-4-yl)phenyl]carbamoyl}cyclohexyl)-N^4-(tetrahydrofuran-2-ylmethyl)-1H-imidazole-4,5-dicarboxamide] | 24 µM
0.0029 µM | CCNC(=O)c1nc[nH]c1C(=O)N[C@H]1CC[C@@]2(CCN(c3cc(C)c(F)cc3Cl)C2=O)CC1 [Example 289, N^5-[(trans)-2-(2-chloro-4-fluoro-5-methylphenyl)-1-oxo-2-azaspiro[4.5]dec-8-yl]-N^4-ethyl-1H-imidazole-4,5-dicarboxamide] | 16 µM
0.0049 µM | COCCNC(=O)c1nc[nH]c1C(=O)N[C@H]1CC[C@@]2(CCN(c3cc(C)c(F)cc3Cl)C2=O)CC1 [Example 334, N^5-[(trans)-2-(2-chloro-4-fluoro-5-methylphenyl)-1-oxo-2-azaspiro[4.5]dec-8-yl]-N^4-(2-methoxyethyl)-1H-imidazole-4,5-dicarboxamide] | ≥ 50 µM
0.27 µM | COC[C@H](C)NC(=O)c1nc[nH]c1C(=O)N[C@H]1CC[C@H](C(=O)Nc2ccc(F)cc2Cl)CC1 [Example 83, N^5-{trans-4-[(2-chloro-4-fluorophenyl)carbamoyl]cyclohexyl}-N^4-[(2S)-1-methoxypropan-2-yl]-1H-imidazole-4,5-dicarboxamide] | 29 µM
